Reference: patent publication US20050129782A1, “Use of inorganic nanoparticles to stabilize hydrogen peroxide solutions” (Alcon, Inc., priority 2003, published 2005)

What was measured:
[1] = Stability of 3% hydrogen peroxide solutions with stabilizing agents, heated at 100° C. for 24 hours, KMnO4 titration (Example 1); format: physicochemical; settings: 3% H2O2, phosphate buffer pH 6.5, 100° C. 24 hours vs 25° C.
Procedure: 3% hydrogen peroxide solutions containing three different stabilizing agents were formulated in phosphate buffer at pH 6.5. 10 ml samples were heated in HCl-cleaned test tubes at 100° C. for 24 hours to simulate a two year shelf life. Then a 200 microliter aliquot was added to 40 ml of a 2.75% H2SO4 solution and titrated with 0.01N KMnO4.

[2] = Stability of 100 ppm H2O2 at various pHs, heated at 100° C. for 24 hours, KMnO4 titration (Example 3); format: physicochemical; settings: 60 ppm Dequest 2060 (control); 100 ppm H2O2, pH 6.5; 100° C. 24 hours vs RT
Procedure: The effectiveness of 50 ppm Laponite® XLG to stabilize 100 ppm H2O2 at various pH levels was evaluated.
50 ppm Laponite® XLG was formulated in a phosphate buffer (0.8655% NaCl, 0.0622% sodium phosphate dibasic, 0.0072% sodium phosphate monobasic monohydrate), along with 100 ppm hydrogen peroxide (from a 30% unstabilized solution). 100 mL samples were then adjusted to pH levels of 6.5, 7.0 and 7.5, respectively. 10 mL of each sample was then placed in a test tube, sealed with a screw cap, and heated to 100° C. for 24 hours. After heating, 5 mL of each sample was titrated with 0.002% KMnO4 and compared to the unheated sample to obtain % stability. 60 ppm of Dequest® 2060 at pH 6.5 was used as a control.

| SMILES | % Stability of H2O2 ([1]; stabilizer 180 ppm) [%] | % stability [2] [%] | % Stability of H2O2 ([1]; stabilizer 500 ppm) [%] |
| --- | --- | --- | --- |
| O=P(O)(O)CN(CCN(CP(=O)(O)O)CP(=O)(O)O)CCN(CP(=O)(O)O)CP(=O)(O)O [Dequest ® 2060] | 98.2 | 92.9 | – |
| O=C(O)CN(CCN(CC(=O)O)CC(=O)O)CC(=O)O [EDTA] | – | – | 24.8 |
